# Measured values: the supplement of paper PMC11451515
# Tested on: P12-Ichikawa
# Experiment: cell viability relative to DMSO control; higher = less cytotoxic
# Details: 48 h
# Method in brief: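 Library compounds in DMSO were pin-dosed in an 11-point threefold series (47 μM to 0.79 nM) onto leukemia cells in 1536-well plates (5 μl). Plates held 500 cells/well of NOMO1 or SEM or 1000 cells/well of P12-Ichikawa, each adapted for at least four passages in each medium. Luminescence was read with CellTiter-Glo One after 48 h at 37°C. Viability means the per-plate percentage relative to DMSO wells, using cell-free wells as background.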
# [1] = HPLM + 10% dialyzed FBS, 0.000781 µM
# [2] = HPLM + 10% dialyzed FBS, 0.00234 µM
# [3] = HPLM + 10% dialyzed FBS, 0.00702 µM
# [4] = HPLM + 10% dialyzed FBS, 0.0211 µM
# [5] = HPLM + 10% dialyzed FBS, 0.0632 µM
# [6] = HPLM + 10% dialyzed FBS, 0.19 µM
# [7] = HPLM + 10% dialyzed FBS, 0.569 µM
# [8] = HPLM + 10% dialyzed FBS, 1.71 µM
# [9] = HPLM + 10% dialyzed FBS, 5.12 µM
# [10] = HPLM + 10% dialyzed FBS, 15.4 µM
# [11] = HPLM + 10% dialyzed FBS, 46.1 µM
# [12] = RPMI 5 mM glucose + 10% FBS, 0.000781 µM
# [13] = RPMI 5 mM glucose + 10% FBS, 0.00234 µM
# [14] = RPMI 5 mM glucose + 10% FBS, 0.00702 µM
# [15] = RPMI 5 mM glucose + 10% FBS, 0.0211 µM
# [16] = RPMI 5 mM glucose + 10% FBS, 0.0632 µM
# [17] = RPMI 5 mM glucose + 10% FBS, 0.19 µM
# [18] = RPMI 5 mM glucose + 10% FBS, 0.569 µM
# [19] = RPMI 5 mM glucose + 10% FBS, 1.71 µM
# [20] = RPMI 5 mM glucose + 10% FBS, 5.12 µM
# [21] = RPMI 5 mM glucose + 10% FBS, 15.4 µM
# [22] = RPMI 5 mM glucose + 10% FBS, 46.1 µM
# [23] = RPMI 5 mM glucose + 10% dialyzed FBS, 0.000781 µM
# [24] = RPMI 5 mM glucose + 10% dialyzed FBS, 0.00234 µM
# [25] = RPMI 5 mM glucose + 10% dialyzed FBS, 0.00702 µM
# [26] = RPMI 5 mM glucose + 10% dialyzed FBS, 0.0211 µM
# [27] = RPMI 5 mM glucose + 10% dialyzed FBS, 0.0632 µM
# [28] = RPMI 5 mM glucose + 10% dialyzed FBS, 0.19 µM
# [29] = RPMI 5 mM glucose + 10% dialyzed FBS, 0.569 µM
# [30] = RPMI 5 mM glucose + 10% dialyzed FBS, 1.71 µM
# [31] = RPMI 5 mM glucose + 10% dialyzed FBS, 5.12 µM
# [32] = RPMI 5 mM glucose + 10% dialyzed FBS, 15.4 µM
# [33] = RPMI 5 mM glucose + 10% dialyzed FBS, 46.1 µM
SMILES,cell viability [1],cell viability [2],cell viability [3],cell viability [4],cell viability [5],cell viability [6],cell viability [7],cell viability [8],cell viability [9],cell viability [10],cell viability [11],cell viability [12],cell viability [13],cell viability [14],cell viability [15],cell viability [16],cell viability [17],cell viability [18],cell viability [19],cell viability [20],cell viability [21],cell viability [22],cell viability [23],cell viability [24],cell viability [25],cell viability [26],cell viability [27],cell viability [28],cell viability [29],cell viability [30],cell viability [31],cell viability [32],cell viability [33]
C[C@@H](CN1CC(=O)NC(=O)C1)N1CC(=O)NC(=O)C1,104%,111%,110%,109%,108%,75%,47%,11.5%,13.7%,4.45%,2.49%,101%,104%,98.5%,116%,111%,97.7%,80.7%,18.1%,18.9%,5.1%,4.44%,94.6%,108%,96.8%,110%,105%,84%,61.3%,19.7%,20%,6.43%,4.62%
O=C(CCCN1CCN(c2ccc(F)cc2)CC1)NC1c2ccccc2CSc2ccccc21 (centres undefined),120%,125%,123%,119%,121%,120%,117%,119%,109%,102%,71.4%,126%,121%,119%,126%,131%,123%,136%,119%,97.4%,83.5%,55.1%,123%,122%,122%,120%,120%,115%,121%,110%,100%,77.7%,59%
COc1ccc2c(c1)CN(C)CC2c1ccc(Cl)c(Cl)c1 (centres undefined),128%,121%,125%,125%,134%,133%,125%,123%,133%,131%,116%,,,,,,,,,,,,,,,,,,,,,,
CCc1ccc(/C=C2/SC(=S)NC2=O)cc1,84.2%,87.7%,79.6%,88.1%,90.9%,80.1%,91.5%,84%,85.3%,60%,88.1%,82.4%,84.6%,76%,88.9%,82.8%,77.7%,85.1%,87.3%,84.8%,46.1%,87.9%,77.4%,83.8%,81.7%,81.2%,87.1%,76.6%,87.3%,83.5%,81.9%,38.1%,90.4%
COC(=O)C\1=C(C)\N\C(=C(/C1C2=CC=CC3=NON=C23)C(=O)OC(C)C)C (centres undefined),100%,102%,99.4%,95%,102%,93.8%,96.9%,96.1%,88%,90.2%,87.7%,96.1%,101%,100%,94.8%,104%,98.8%,93.1%,94.2%,87%,86.9%,87.4%,97.6%,94.6%,88.5%,95.2%,101%,90.4%,88.7%,87.2%,93.4%,86.6%,86.1%
Cc1csc(-c2nnc(Nc3ccc(Oc4ncccc4-c4ccnc(N)n4)cc3)c3ccccc23)c1,107%,111%,104%,15.1%,16.6%,14.6%,19.1%,23.2%,20.1%,18.7%,22%,104%,116%,106%,22.3%,20.1%,16.7%,20.3%,26.5%,26.4%,24.3%,24.9%,117%,109%,108%,27.8%,24.8%,27.1%,34.4%,39.9%,43.5%,39.6%,38.1%
Cc1cccc(Nc2ccncc2[S+](=O)([O-])NC(=O)NC(C)C)c1,102%,97.6%,100%,93.8%,101%,96.7%,93%,90%,91.3%,85.8%,83.1%,94.9%,95.5%,95.4%,94.2%,104%,104%,98.2%,94.1%,96.8%,86.4%,86.6%,86.1%,89.3%,93.1%,90%,91.9%,97.2%,90%,87.3%,88%,85.5%,76.1%
